Here are results for two compounds from patent US20190209506A1, “METHODS OF REDUCING OR PREVENTING OXIDATION OF LDL OR LIPID MEMBRANES IN A SUBJECT IN NEED THEREOF” (Amarin Pharmaceuticals Ireland Limited, priority 2018, published 2019).

A short description of series [1]: Glucose-induced membrane lipid peroxidation (LOOH, CHOD-iodide assay) in DLPC/cholesterol vesicles (Examples 4, 5). The note with it: 1.0 μM; glucose 200 mg/dL; 96 hours. In kind it is biochemical. Here is the method: All test compounds were further diluted in ethanol or aqueous buffer as needed. Glucose was prepared in saline buffer (0.5 mM HEPES, 154 mM NaCl, pH 7.3) at 11.0 mM (200 mg/dL). CHOD-iodide color reagent (stock) was prepared, with slight modification, as described by from El-Saadani et al. (J. […] Samples were shell-dried under nitrogen gas and placed under vacuum for 1 h to remove residual solvent. […] Lipid suspensions were then vortexed for 3 min at ambient temperature to form MLVs. All MLV samples were subjected to time-dependent autoxidation by incubating at 37° C. in an uncovered, shaking water bath. This method allows lipid peroxidation to occur gradually without requiring the use of exogenous initiators. Small aliquots (5-100 μL) of each sample were removed, immediately following MLV preparation (0 hour) and after exposing samples to oxidative conditions for 72 or 96 hour, and combined with 1.0 mL of activated CHOD-iodide color reagent. Aliquot volume was reduced with each successive time point to ensure that spectrophotometric readings were within the optimal adsorption range. Test samples were covered and incubated in darkness at room temperature for at least 4 hr. Sample absorbances were then measured against a CHOD blank at 365 nm using a Beckman DU-640 spectrophotometer. The CHOD colorimetric assay is based on the oxidation of iodide (I^−) by lipid hydroperoxide (LOOH) to form triiodide the quantity of which is directly proportional to the amount of LOOH present in the lipid sample. The molar absorptivity (ε) of I3^− is 2.46×10^4 M^−1 cm^−1 at 365 nm. […] All MLV samples were subjected to time-dependent autoxidation by incubating at 37° C. in an uncovered, shaking water bath. This method allows lipid peroxidation to occur gradually without requiring the use of exogenous initiators. Small aliquots (5-100 μL) of each sample were removed, immediately following MLV preparation (0 hr) and after exposing samples to oxidative conditions for 72 or 96 hr, and combined with 1.0 mL of activated CHOD-iodide color reagent. Aliquot volume was reduced with each successive time point to ensure that spectrophotometric readings were within the optimal adsorption range. Test samples were covered and incubated in darkness at room temperature for at least 4 hr. Sample absorbances were then measured against a CHOD blank at 365 nm using a Beckman DU-640 spectrophotometer. […] The molar absorptivity (ε) of I3^− is 2.46×10^4 M^−1 cm^−1 at 365 nm.

Series [2] deals with human sdLDL. As to the kind of experiment: Copper-induced sdLDL oxidation, TBARS (Example 7). In kind it is biochemical.
Procedure: An experiment to study the antioxidant effect of EPA in LDL and small dense LDL (“sdLDL”) was performed. LDL and sdLDL were isolated from the plasma of healthy volunteers by iodixanol density gradient ultracentrifugation, and adjusted to a final apolipoprotein concentration of 2 mg/mL. […] Lipid oxidation was initiated with 10 μM CuSO4 and monitored by the colorimetric detection of thiobarbituric acid reactive substances (TBARS) for 1 hr. Vitamin E was also incubated with sample aliquots as a positive control.
For series [3], the system named is human LDL. Put plainly: Copper-induced oxidation of unfractionated LDL, TBARS (Example 7). The note with it: 1 hour. In kind it is biochemical. Here is the method:
An experiment to study the antioxidant effect of EPA in LDL and small dense LDL (“sdLDL”) was performed. LDL and sdLDL were isolated from the plasma of healthy volunteers by iodixanol density gradient ultracentrifugation, and adjusted to a final apolipoprotein concentration of 2 mg/mL. […] Vitamin E was also incubated with sample aliquots as a positive control.

Series [4] concerns rat renal glomerular endothelial cells. Put plainly: NO and ONOO^− release ex vivo from glomerular endothelial cells exposed to oxLDL and high glucose (Example 13). In kind it is cell-based. The settings on record: 10.0 μM, 1 hr; oxLDL 11 mg/dL and glucose 300 mg/dL; vs vehicle. Here is the method: Healthy male Wistar Kyoto (WKY) rats, aged 7-9 weeks and weighing 250±20 g, were obtained from inbred colonies (National Institutes of Health, Bethesda, Md.). Animals were housed in a controlled environment that provided food and water ad libitum prior to the study. […] Animals were sacrificed and tissue samples obtained immediately for experimentation. All procedures were conducted in accordance with standard Institutional Animal Care and Use Committee guidelines and conformed to the Guide for the Care and Use of Laboratory Animals published by the US National Institutes of Health.
Immediately after sacrificing the rats, kidneys were removed, cut into 100 μm sections and transferred to a separate organ chamber containing Dulbecco's phosphate buffered saline ([…]) and […] at pH 7.4. […]
The NO/ONOO− nanosensor was positioned near the surface of the endothelial cells using a computer-controlled M3301 micromanipulator (x-y-z resolution of 0.2 μm) and microscope (both from World Precision Instruments, Berlin, Germany) fitted with a CD camera. Each analyte was measured from amperograms and standard calibration curves collected under maximum current. […] Changes in current (proportional to the molar concentrations of NO or ONOO^− released) were monitored continuously immediately following CaI stimulation.

Series [5] concerns the target T1, HMG-CoA reductase (Homo sapiens, UniProt P04035).
T1 sequence (P04035 1-888): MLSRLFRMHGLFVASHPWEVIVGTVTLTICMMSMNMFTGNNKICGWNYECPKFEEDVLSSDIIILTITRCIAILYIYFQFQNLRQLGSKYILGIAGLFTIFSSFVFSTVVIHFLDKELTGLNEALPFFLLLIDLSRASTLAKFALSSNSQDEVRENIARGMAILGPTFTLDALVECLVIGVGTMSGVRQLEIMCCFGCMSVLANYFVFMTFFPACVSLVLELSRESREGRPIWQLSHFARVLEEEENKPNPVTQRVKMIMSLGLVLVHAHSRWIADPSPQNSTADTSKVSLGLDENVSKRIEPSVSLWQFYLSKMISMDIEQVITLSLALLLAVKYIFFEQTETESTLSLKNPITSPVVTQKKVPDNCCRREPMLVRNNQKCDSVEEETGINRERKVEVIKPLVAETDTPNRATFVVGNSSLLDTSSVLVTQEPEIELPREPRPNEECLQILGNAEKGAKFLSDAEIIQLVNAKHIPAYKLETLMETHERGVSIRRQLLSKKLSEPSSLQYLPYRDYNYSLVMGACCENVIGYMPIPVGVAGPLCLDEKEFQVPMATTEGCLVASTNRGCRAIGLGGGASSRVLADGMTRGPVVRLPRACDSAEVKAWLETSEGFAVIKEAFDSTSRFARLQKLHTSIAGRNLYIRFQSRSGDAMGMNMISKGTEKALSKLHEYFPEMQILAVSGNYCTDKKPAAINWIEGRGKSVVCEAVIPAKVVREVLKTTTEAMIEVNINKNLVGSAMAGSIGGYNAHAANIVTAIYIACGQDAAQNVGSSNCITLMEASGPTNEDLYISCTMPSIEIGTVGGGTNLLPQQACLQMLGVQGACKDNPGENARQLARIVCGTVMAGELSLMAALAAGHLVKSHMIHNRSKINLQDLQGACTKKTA
The note with it: metabolized by hepatic cytochrome P450; cited from earlier work.

For `CC(C)c1c(C(=O)Nc2ccccc2O)c(-c2ccccc2)c(-c2ccc(F)cc2)n1CC[C@@H](O)C[C@@H](O)CC(=O)O` [ATM, Atorvastatin ortho- (o-) hydroxy (active) metabolite], the “antioxidant effect (LOOH formation)” value in series [1] is “separate and potent antioxidant effects”. Besides, the “inhibition of sdLDL oxidation” value stood at 5±5% in series [2] (0.5 μM, 1 hr); 18±5% in series [2] (1.0 μM, 1 hr, vs vehicle); 90±2% in series [2] (highest dose, 1 hr). The “effect on unfractionated LDL oxidation, dose dependence” value in series [3] was “significant and dose-dependent inhibition of unfractionated LDL oxidation beginning at 1.0 μM”. Moreover, in series [4], the “increase of NO release” value turned out to be 205%. In series [4], the “reduction of ONOO^− release” value is on record as 25%.
For `CC(C)c1c(C(=O)Nc2ccccc2)c(-c2ccccc2)c(-c2ccc(F)cc2)n1CC[C@@H](O)C[C@@H](O)CC(=O)O` [atorvastatin], the “effect on sdLDL oxidation compared to vehicle-treated controls” value in series [2] (10 μM, 1 hour) is “did not have any significant antioxidant activity”. In addition, the “inhibition of TBARS formation / sdLDL oxidation” value in series [2] (10 μM, 1 hr, vs vehicle) is given as 0.1±7%. Moreover, the “effect on unfractionated LDL oxidation” value in series [3] (10 μM) is “did not have any significant antioxidant activity”. Further, the “share of circulating HMG-CoA reductase inhibitory activity accounted for by active metabolites” value in series [5] is reported as “approximately 70%”.
